Experimental data: publication PMC10313368 (The Journal of Clinical Investigation, 2023)
Where “and” joins values, the source holds several entries; their conditions need not be identical. Equal values may be shown once. Residues, ends and D or L forms follow the SMILES beside them. *: point of attachment. Cbz = O=C(OCc1ccccc1)*

Columns and labels:
HIF-2α = HIF-2α (Homo sapiens, UniProt Q99814); assay: Immunoblot of HIF-2α accumulation in MIO-M1 cells cultured in hypoxia; format: cell-based; design: endogenous in cells; host or cells: MIO-M1; conditions: MIO-M1, hypoxia 4 hours; MG-132
HIF-2α, sequence (Q99814 whole entry): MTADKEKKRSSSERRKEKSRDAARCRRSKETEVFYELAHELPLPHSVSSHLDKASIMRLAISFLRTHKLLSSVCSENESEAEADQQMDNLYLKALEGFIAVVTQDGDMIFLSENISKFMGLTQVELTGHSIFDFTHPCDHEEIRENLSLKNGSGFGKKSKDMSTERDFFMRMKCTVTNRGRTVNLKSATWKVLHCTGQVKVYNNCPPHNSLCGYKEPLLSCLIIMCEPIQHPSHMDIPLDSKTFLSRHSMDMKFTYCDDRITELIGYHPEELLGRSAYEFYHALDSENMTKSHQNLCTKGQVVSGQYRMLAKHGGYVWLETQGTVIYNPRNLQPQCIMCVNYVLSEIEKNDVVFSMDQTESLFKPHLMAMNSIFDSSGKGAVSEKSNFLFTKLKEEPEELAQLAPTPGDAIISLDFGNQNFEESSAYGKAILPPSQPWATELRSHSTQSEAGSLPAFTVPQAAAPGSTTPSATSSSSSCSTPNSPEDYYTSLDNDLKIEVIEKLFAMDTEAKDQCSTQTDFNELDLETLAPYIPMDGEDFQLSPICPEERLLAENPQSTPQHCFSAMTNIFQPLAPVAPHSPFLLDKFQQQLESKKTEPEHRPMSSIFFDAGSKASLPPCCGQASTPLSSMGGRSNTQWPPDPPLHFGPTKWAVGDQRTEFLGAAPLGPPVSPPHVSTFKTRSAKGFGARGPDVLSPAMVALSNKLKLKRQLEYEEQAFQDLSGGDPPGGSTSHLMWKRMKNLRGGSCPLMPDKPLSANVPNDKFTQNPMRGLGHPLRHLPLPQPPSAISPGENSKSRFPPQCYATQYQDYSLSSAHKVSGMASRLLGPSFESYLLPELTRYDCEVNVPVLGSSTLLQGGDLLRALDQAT
Protocol: (§1) MIO-M1, HUVECs, and ARPE19 cells were cultured in DMEM with 10% (vol/vol) FBS (Quality Biological) and 1% penicillin/streptomycin (Cellgro). A hypoxic chamber (Coy Laboratory Product Inc.; Two Glove Model) with 5% CO2, 94% N2, and 1% O2 gas concentration at 37°C was used to culture hypoxic cells. The control cells were cultured in an incubator maintained at 37°C, with 21% O2 and 5% CO2. […] Aflibercept was obtained from the Johns Hopkins University Pharmacy.
(§2) Immunoblot assays. Cells, neurosensory retina, and D120 retinal organoid lysates were subjected
(§3) to 4–15% gradient SDS/PAGE (Invitrogen). Immunoblot (Western blot or WB) assays were
(§4) performed as previously described (1). […]

HIF-1α = HIF-1α (Homo sapiens, UniProt Q16665); assay: Immunoblot of HIF-1α accumulation in MIO-M1 cells cultured in hypoxia; format: cell-based; design: endogenous in cells; host or cells: MIO-M1; conditions: MIO-M1, hypoxia 4 hours; MG-132 10 μM, bortezomib 10 μM, bafilomycin 10 nM
HIF-1α, sequence (Q16665 whole entry): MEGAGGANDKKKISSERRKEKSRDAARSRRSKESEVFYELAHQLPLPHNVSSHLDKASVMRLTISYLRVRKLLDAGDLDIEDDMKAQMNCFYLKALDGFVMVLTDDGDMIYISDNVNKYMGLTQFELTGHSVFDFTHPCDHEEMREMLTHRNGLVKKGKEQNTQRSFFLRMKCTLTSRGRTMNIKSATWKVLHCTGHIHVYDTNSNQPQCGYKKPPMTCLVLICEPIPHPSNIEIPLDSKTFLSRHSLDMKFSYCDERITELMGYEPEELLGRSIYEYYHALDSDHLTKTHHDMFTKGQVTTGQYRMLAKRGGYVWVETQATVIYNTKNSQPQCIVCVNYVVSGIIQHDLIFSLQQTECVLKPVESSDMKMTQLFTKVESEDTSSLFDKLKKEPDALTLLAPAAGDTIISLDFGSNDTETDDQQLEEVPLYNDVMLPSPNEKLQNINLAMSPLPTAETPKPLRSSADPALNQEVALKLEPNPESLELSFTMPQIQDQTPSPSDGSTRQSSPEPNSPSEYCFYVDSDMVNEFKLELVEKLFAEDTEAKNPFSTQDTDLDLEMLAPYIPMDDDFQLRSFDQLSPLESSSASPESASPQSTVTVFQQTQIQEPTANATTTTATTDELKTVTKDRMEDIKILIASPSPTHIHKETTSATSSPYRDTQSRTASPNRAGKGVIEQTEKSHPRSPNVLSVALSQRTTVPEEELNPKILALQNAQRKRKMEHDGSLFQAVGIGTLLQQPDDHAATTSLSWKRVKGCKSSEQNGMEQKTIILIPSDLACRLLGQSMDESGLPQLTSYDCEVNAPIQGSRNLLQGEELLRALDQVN
Protocol: as §1, §2, §3, §4

[1] = test system: HIF-regulated vasoactive mediators; assay: mRNA expression of HIF-regulated vasoactive mediators in retina of STZ-induced diabetic mice (qPCR); format: in vivo, mouse
Protocol: (§5) Reverse transcription and quantitative real-time PCR. Total RNA was isolated from cultured cells or retinas with PureLinkTM RNA Mini Kit (Invitrogen #12183025), and cDNA was prepared with MuLV Reverse Transcriptase (Applied Biosystems). Quantitative real-time PCR was performed with Power SYBR Green PCR Master Mix (Applied Biosystems) and MyiQ Real-Time PCR Detection System (Bio-Rad). Normalization was done using cyclophilin A for mouse tissue and human cell lines. Primers are listed in Supplemental Table 2. […]
STZ-induced diabetes mouse model. 8-to-10 week-old male mice received an IP injection of STZ at 40 mg/kg of body weight in 0.1M of citrate buffer (pH 4.5) for 5 consecutive days. Normal chow and 10% sucrose water were provided during this period. 10% sucrose was discontinued and replaced with regular water on experimental day 6. Blood glucose was measured on experimental day 28 after 16 hours fasting and mice with blood glucose level > 250 mg/dL were considered […]
(§6) Intraperitoneal (IP) injections. […]

OIR mice = assay: Retinal NV in the oxygen-induced retinopathy (OIR) mouse model; format: in vivo; conditions: for OIR NV%: Figure 14D
Excerpt: To characterize the contribution of these other HIF-regulated angiogenic factors to the promotion of ischemia-driven retinal NV in vivo, we used the classic oxygen-induced retinopathy (OIR) model characterized by Smith and colleagues ([35]). In stage 1 of this model, P7 pups are exposed to hyperoxia (75% O2) for 5 consecutive days (P7–P12), resulting in obliteration of the posterior retinal vasculature. In stage 2, pups (at P12) are returned to room air (21% O2). The resulting relative ischemia promotes the expression of angiogenic mediators that stimulate the development of retinal NV (peaking at P17; Figure 2A). […]
(§7) Animal studies. Eight-week-old pathogen-free female C57BL/6 mice were obtained from The Jackson Laboratory (JAX). Timed pregnant C57BL/6 mice were obtained from Charles River Laboratories. Mice heterozygous for HIF-1α have been previously described (2). Mice heterozygous for HIF-2α (strain number: 003266; common name: EPAS1 KO) were purchased […]
(§8) OIR mouse model. OIR experiments were performed as previously described (1, 3). Briefly, C57BL/6 mice were placed in 75% O2 on P7. On P12, the mice were returned to room air and were […]
(§9) (or vehicle) by intravitreal injection. Mice with body weight less than 6 g at P17 were excluded […]
(§10) from analysis. Data were collected from both males and females and the results were combined since there was no apparent difference between sexes. Representative images for selected time points from a minimum of three independent experiments are shown. Data from 3-8 pups were obtained at each time point. […]
as §6
(§11) intraperitoneally using an insulin syringe in OIR pups. […]
(§12) the peritoneal cavity of neonatal C57BL/6 mice and STZ mice at indicated times, and the retinal vasculature and lysates for WB and qPCR were assessed at P17.
(§13) Intraocular injections. Intravitreal injections were performed with a PLI-100A Pico-liter Microinjector (Warner Instruments, Harvard Bioscience) using pulled-glass micropipettes. Each micropipette was calibrated to deliver a 1 μl volume on depression of a foot switch. The mice were anesthetized with a ketamine (100 mg/kg) and xylazine (5mg/kg) mixture, and under a dissecting microscope, the sharpened tip of the micropipette was passed through the sclera just posterior to the limbus into the vitreous cavity and the foot switch was depressed, which caused fluid to […]
penetrate into the vitreous space. […]
mice for vascular permeability test, retinal vasculature, and lysates for WB and qPCR analysis.
Immunoﬂuorescence assays. Details for antibodies are provided in Supplemental Table 1.
Immunofluorescence assays in retinal organoids and mouse retinal tissues were performed as previously described (4). Briefly, mice were sacrificed using CO2 asphyxiation, and the eyes were enucleated and fixed with a solution of 4% paraformaldehyde in PBS (Thermo Scientific™) for two hours at RT, followed by washing with PBS for 10 minutes in a shaker. Retinas were isolated and incubated in 0.5% BSA solution overnight at 4 °C. Retinas were then washed with PBS 3 times for 10 minutes in the shaker and stained with isolectin B4 (Invitrogen; 1:200 dilution in PBS) overnight at 4 °C. After washing 3 times for 10 minutes each in the shaker, the retinas were mounted. Images were captured with Zeiss fluorescent microscope. Eight fields per eye (2 fields per petal) including area of neovascularization were selected and fluorescence intensity was measured by ImageJ software. […]
The eyes were enucleated and immediately immersed in 4% (wt/vol) paraformaldehyde for 2 hours at room temperature. Retinas were isolated and wholemounts prepared on clean glass slides and mounted vitreous side up under coverslips with antifade medium (Vectashield; Vector Laboratories, Burlingame, CA). Images were captured by Zeiss fluorescent microscope or confocal microscopy and fluorescence was quantified by the image J software (National Institutes

[2] = test system: STZ-induced diabetic mice; assay: Vascular permeability by Evans blue tracer method in STZ mice; format: in vivo, mouse; conditions: digoxin treatment, mice hyperglycemic for 6 months
Protocol: STZ-induced diabetes mouse model. 8-to-10 week-old male mice received an IP injection of STZ at 40 mg/kg of body weight in 0.1M of citrate buffer (pH 4.5) for 5 consecutive days. Normal chow and 10% sucrose water were provided during this period. 10% sucrose was discontinued and replaced with regular water on experimental day 6. […]
Intraocular injections. Intravitreal injections were performed with a PLI-100A Pico-liter Microinjector (Warner Instruments, Harvard Bioscience) using pulled-glass micropipettes. Each micropipette was calibrated to deliver a 1 μl volume on depression of a foot switch. […]
Images were captured with Zeiss fluorescent microscope. Eight fields per eye (2 fields per petal) including area of neovascularization were selected and fluorescence intensity was measured by ImageJ software. […]
The eyes were enucleated and immediately immersed in 4% (wt/vol) paraformaldehyde for 2 hours at room temperature. […] Images were captured by Zeiss fluorescent microscope or confocal microscopy and fluorescence was quantified by the image J software (National Institutes […]
of Health, Bethesda, MD). Blinded quantification of the number of leaking vessels was performed by manual counting of major leakage from capillaries from retinas of each group. […] Random fields were chosen from retinas where leakages were absent to determine baseline fluorescence that arise from capillaries. […]

[3] = test system: HIF-regulated angiogenic mediators; assay: mRNA expression of HIF-regulated vasoactive mediators in OIR mouse retina (qPCR); format: in vivo
Protocol: as §5, §7, §8, §9, §10, §6, §11, §12, §13

[4] = STZ mice + Digoxin, control about 1, replicates, Figure 4F
[5] = OIR mice P17, Digoxin i.p. 2mg/kg at P12, NON-OIR about 1, replicates, Figure 2C, 2 mg/kg
[6] = digoxin 2 mg/kg i.p. at P12, P17

Q: What does the source list for `CC(C)C[C@@H](C=O)NC(=O)[C@H](CC(C)C)NC(=O)[C@H](CC(C)C)NC(=O)OCc1ccccc1` [MG-132, reference compound] (Cbz-Leu-Leu-Leu-aldehyde)?
A: effect of pretreatment on 32-134D inhibition of HIF-2α accumulation (HIF-2α): prevented the ability of 32-134D to block HIF-1α and HIF-2α protein accumulation; effect of pretreatment on 32-134D inhibition of HIF-1α accumulation (HIF-1α): prevented the ability of 32-134D to block HIF-1α and HIF-2α protein accumulation

Q: For `CO/C1=C\C(C)=C\[C@@H](C)[C@@H](O)[C@@H](C)C/C(C)=C/C=C/[C@H](OC)[C@@H]([C@@H](C)[C@@H](O)[C@H](C)[C@@]2(O)C[C@@H](O)[C@H](C)[C@@H](C(C)C)O2)OC1=O` [bafilomycin, reference compound], which “effect of pretreatment on 32-134D inhibition of HIF-1α accumulation” value (HIF-1α) is on record?
A: did not prevent 32-134D from inhibiting HIF-1α accumulation

Q: For `CC(C)C[C@H](NC(=O)[C@H](Cc1ccccc1)NC(=O)c1cnccn1)B(O)O` [bortezomib, reference compound], which “effect of pretreatment on 32-134D inhibition of HIF-1α accumulation” value (HIF-1α) is on record?
A: corroborated

Q: Which “Angptl4 mRNA” value [1, 4] does the source give for `C[C@H]1O[C@@H](O[C@H]2[C@@H](O)C[C@H](O[C@H]3[C@@H](O)C[C@H](O[C@H]4CC[C@@]5(C)[C@H](CC[C@@H]6[C@@H]5C[C@@H](O)[C@]5(C)[C@@H](C7=CC(=O)OC7)CC[C@]65O)C4)O[C@@H]3C)O[C@@H]2C)C[C@H](O)[C@@H]1O` [digoxin, reference compound] here?
A: 0.6214 and 1.778 and 1.462

Q: And the “Vegfa mRNA” value [1, 4]?
A: 0.79 and 0.8827 and 0.5987

Q: What about the “Vegf and Angptl4 mRNA expression in STZ mice (in words)” value ([1]; digoxin treatment) of the same compound?
A: decrease in Vegf and Angptl4 mRNA expression to levels similar to those in nondiabetic mice

Q: And the “neovascular area (%)” value (OIR mice; OIR mice at P17, single i.p. digoxin 2 mg/kg at P12, individual values, Figure 2A)?
A: 0.786% and 0.8973% and 1.637% and 0.108% and 0.7093% and 1.719%

Q: And the “retinal NV in the OIR model (in words)” value (OIR mice; digoxin 2 mg/kg single i.p. at P12, read at P17)?
A: prevented retinal NV

Q: And the “vascular permeability in STZ mice (in words)” value [2]?
A: decreased vascular permeability

Q: And the “Vegfa mRNA” value ([3]; OIR mice P17, Digoxin i.p. 2mg/kg at P12, NON-OIR about 1, replicates, Figure 2B, 2 mg/kg)?
A: 4.361 and 3.814 and 4.0024

Q: What about the “Angpt2 mRNA” value [3, 5] of the same compound?
A: 1.359 and 1.263 and 1.386

Q: And the “Angptl4 mRNA” value [3, 5]?
A: 1.389 and 1.31 and 1.599

Q: And the “Pdgfb mRNA” value [3, 5]?
A: 3.611 and 3.067 and 2.999

Q: And the “Ptprb mRNA” value [3, 5]?
A: 0.8633 and 0.7662 and 0.7639

Q: What about the “Serpine1 mRNA” value [3, 5] of the same compound?
A: 13.6912 and 13.3012 and 10.8019

Q: And the “expression of VEGF in OIR mice (in words)” value [3, 6]?
A: only modestly inhibiting the expression of VEGF

Q: And the “expression of other vasoactive genes in OIR mice (in words)” value [3, 6]?
A: modest reduction

Q: With “aflibercept: FDA-approved anti-VEGF therapy for DME and PDR [reference compound]” as the compound, how does the “OIR NV%” value (OIR mice; 100ng i.v., individual values) read?
A: 10.6252% and 10.4463% and 8.931% and 10.009% and 8.751% and 10.316%

Q: What about the “OIR NV%” value (OIR mice; 200ng i.v., individual values) of the same compound?
A: 6.75% and 9.52% and 8.9161% and 6.123% and 11.2235% and 10.084%

Q: What about the “OIR NV%” value (OIR mice; 400ng i.v., individual values) of the same compound?
A: 2.501% and 5.995% and 9.1174% and 1.799% and 6.421% and 2.903%
